Measured values as given in patent publication US11524975B2, “Amphiphilic compound having dendronic hydrophobic group and application thereof” (Industry-University Cooperation Foundation Hanyang …, priority 2017, dated 2022).
Like-named read-outs stand apart in the source and are kept apart here.

Key:
[1] = Critical micelle concentration by hydrophobic fluorescence staining with diphenylhexatriene (DPH); assay type: physicochemical
Description: A method of measuring CMC is not particularly limited, and may be a method widely known in the art, for example, fluorescent staining using diphenylhexatriene (DPH).
(§1) To identify the properties of DTMs synthesized according to the synthetic methods of Examples 1 and 2, the molecular weights (M.W.) and critical micellar concentrations (CMCs) of DTMs, and hydrodynamic radii (Rh) of formed micelles were measured.
(§2) Specifically, the CMCs were measured using hydrophobic fluorescence staining and diphenylhexatriene (DPH), and the hydrodynamic radii (Rh) of the micelles formed by each formulation were measured by dynamic light scattering (DLS).

[2] = Hydrodynamic radius of micelles by dynamic light scattering (DLS); assay type: physicochemical; settings: 0.5 wt % detergent concentration
Description: A method of measuring the radius of a micelle is not particularly limited, but may be a method well known in the art, for example, dynamic light scattering (DLS).
as §1, §2

LHI-RC complex = test system: T1, LHI-RC complex; experiment: Structural stability of LHI-RC complex in detergent, UV-Vis absorbance at 875 nm; design: species or system R. capsulatus; settings: 25° C., FIG. 5
T1 construct: His tag (implied only by Ni-NTA / HisSpinTrap purification); made in house; host or cells: R. capsulatus U43 [pUHTM86Bgl] membranes
Description: An experiment was conducted to evaluate the stabilization ability of DTMs on LHI-RC. The photosynthetic super assembly consists of a complex of light-harvesting complex I (LHI) and a reaction center (RC). The structural stability of LHI-RC was measured by a method of monitoring the structure of a protein for 20 days using UV-Vis spectroscopy. LHI-RC protein stability according to the concentration of an amphiphilic molecule was investigated using all DTMs of the present invention, and conventional amphiphilic molecules, such as DDM and OG, and the concentrations of an amphiphilic molecule used here were CMC+ 0.04 wt % (FIG. 5a) and CMC+ 0.2 wt % (FIG. 5b).
Specifically, LHI-RC stability was measured using a method disclosed in the paper published in 2008 by the inventors (P. S. Chae et al., ChemBioChem 2008, 9, 1706-1709.). […] A 10 mL aliquot of the solution of the frozen R. capsulatus membrane was homogenized using a glass homogenizer, and incubated with gentle stirring at 32° C. for 30 minutes. The homogenized membrane was treated with 1.0 wt % DDM for 30 minutes at 32° C. […] Protein stability was measured at regular intervals during the incubation by measuring UV-Vis spectra of the samples in the range of 650 to 950 nm. Protein integrity was evaluated by monitoring absorbance (A875) at 875 nm.

[3] = molecular target: T2, MelBSt (melibiose permease) (Salmonella typhimurium, UniProt P30878); settings: 1.5 wt % detergent, 90 minutes
T2 construct: made in house; host or cells: E. coli DW2 (ΔmelB, ΔlacZY), plasmid pK95ΔAHB/WT MelBSt/CH10
Description: Specifically, Salmonella typhimurium MelBSt (melibiose permease) having a 10-His tag at the C-terminus was expressed in E. coli DW2 cells (ΔmelB and ΔlacZY) using a pK95ΔAHB/WT MelBSt/CH10 plasmid. Cell growth and membrane preparation were carried out according to the methods disclosed in the paper written by A. S. Ethayathulla et al. (Nat. Commun. 2014, 5, 3009). A protein assay was performed using a Micro BCA kit (Thermo Scientific, Rockford, Ill.). MelBSt stability in DTMs or DDM was evaluated using the protocol disclosed in Nat. Methods 2010, 7, 1003-1008, written by P. S. Chae et al. A MelBSt-containing membrane sample (the final protein concentration was 10 mg/mL) was incubated in a solubilization buffer containing 1.5% (w/v) DDM or DTM (20 mM sodium phosphate, pH 7.5, 200 mM NaCl, 10% glycerol and 20 mM melibiose) at four different temperatures (0, 45, 55 and 65° C.) for 90 minutes. To remove an insoluble material, ultracentrifugation was performed using a Beckman Optima™ MAX ultracentrifuge equipped with a TLA-100 rotor at 355,590 g and 4° C. for 45 minutes. […] The loaded samples were analyzed by SDS-15% PAGE, and then visualized by immunoblotting with a Penta-His-HRP antibody (Qiagen, Germantown, Md.).

MelBSt and MelBEc = experiment: Galactoside-binding Trp→D2G FRET assay of detergent-solubilized MelB homologs; assay type: biochemical; settings: 1.0% detergent, 60 minutes at 23° C., FIG. 8c
Description: In addition, RSO vesicles were prepared to be used for Trp→D^2G FRET assay. The RSO membrane vesicles were prepared by osmotic lysis from E. coli DW2 cells containing MelBSt or MelBEc. The RSO membrane vesicles mixed in a buffer (pH 7.5) containing 100 mM KPi and 100 mM NaCl at a protein concentration of 1 mg/ml were treated with 1.0% individual compounds (DDM, DTM-A5 and DTM-A6) for 60 minutes at 23° C., and ultracentrifuged using a TLA 120.2 rotor at 300,000 g or more for 45 minutes at 4° C. Supernatants were applied to a FRET (Trp→D^2G) experiment using an Amico-Bowman Series 2 (AB2) spectrofluorometer. The 2′-(N-dansyl)aminoalkyl-1-thio-β-D-galactopyranoside (D^2G, dansyl-galactoside) was obtained from Drs. Gerard Leblanc and H. Ronald Kaback. D^2G FRET signals of MelBSt and MelBEc were collected at 490 and 465 nm, respectively, upon excitation of Trp residues at 290 nm. 10 μM D^2G and excess melibiose or an equal amount of water (control) was added into an MelB solution at the time points of 1 minute and 2 minutes, respectively.

β2AR = molecular target: T3, β2AR (Homo sapiens, UniProt P07550); experiment: β2AR stability in detergent, [3H]-dihydroalprenolol (DHA) binding; assay type: biochemical; settings: CMC+0.2 wt %, 4 days at room temperature, FIG. 9a
T3 construct: made in house; host or cells: Sf9 insect cells, baculovirus
Description: A receptor was expressed in Sf9 insect cells infected with a baculovirus and solubilized in 1% DDM. The DDM-solubilized receptor was purified by alprenolol-sepharose in the presence of 0.01% cholesteryl succinate (CHS). β2AR purified by DDM was diluted with a buffer containing DDM or DTM (DTM-A6, DTM-A7 or DTM-E7) to reach the final concentration of CMC+0.2 wt %. β2AR solubilized in each compound was stored for 4 days at room temperature, and the ligand binding ability of the receptor was measured at regular intervals by incubating the receptor with 10 nM radioactive [^3H]-dihydroalprenolol (DHA) for 30 minutes at room temperature. The mixture was loaded into a G-50 column, and a supernatant was collected using a certain amount of binding buffer (supplemented with 20 mM HEPES pH 7.5, 100 mM NaCl, 0.5 mg/ml BSA). In addition, a 15 ml scintillation fluid was added. Receptor-binding [^3H]-DHA was measured using a scintillation counter (Beckman).

β2AR-Gs complex [4] = molecular target: T4, β2AR-Gs complex (Homo sapiens, UniProt P07550); settings: DDM-purified complex, previous study; cited from earlier work
T4 construct: made in house; host or cells: β2AR: Sf9 insect cells

β2AR-Gs complex [5] = molecular target: T4, β2AR-Gs complex; settings: DDM-purified complex, previous study; cited from earlier work; remark: listed apart in the source
β2AR-Gs complex [6] = molecular target: T4, β2AR-Gs complex; experiment: Stability of β2AR-Gs complex by analytical gel filtration (SEC); settings: complex purified in detergent, compound-free running buffer, 3 and 15-day incubation, FIG. 9b
Description: 100 μM β2AR solubilized in 0.1% DDM was mixed with 120 μM Gs heterotrimer for 30 minutes at room temperature. 0.5 unit of apyrase (NEB) and 2 mM MgCl2 was added to facilitate complex formation, followed by further incubation for one hour. Subsequently, 1% DTM-A6 was added such that the final concentration reached 0.8%, and the sample was further incubated for 30 minutes to change DDM to DTM-A6. The protein solution was loaded into a M1 Flag column, washed with a series of buffers with different molar ratios of 0.1% DDM buffer to 0.5% DTM-A6 buffer to completely change DDM to DTM-A6, and the protein was finally eluted with 0.05% (70×CMC) DTM-A6 buffer. Preparative gel filtration was performed to purify the β2AR-Gs complex with a running buffer (20 mM HEPES pH 7.5, 100 mM NaCl, 0.005% DTM-A6, 1 mM BI, […]). To measure the stability of the β2AR-Gs complex in DTM-A6, analytical gel filtrations were performed using the running buffer as above, but after 3 and 15-day incubation, performed without DTM-A6 (compound-free condition).

β2AR-Gs complex [7] = molecular target: T4, β2AR-Gs complex; experiment: Negative stain EM analysis of β2AR-Gs complex; settings: FIG. 11
Description: A β2AR-Gs protein complex was prepared for electron microscopy using a conventional negative staining protocol, and imaged at room temperature using a Tecnai T12 electron microscope operated at 120 kV according to a low-dose procedure. Images were recorded at a magnification of 71,138× and a defocus value of approximately ˜1.1 μm on a Gatan US4000 CCD camera. All images were binned (2×2 pixels) to obtain a pixel size of 4.16 Å at a specimen level. Particles were manually […] using e2boxer (part of the EMAN2 software suite). 2D reference-free alignment and classification of particle projections were performed using ISAC. 124,279 projections of β2AR-Gs were subjected to ISAC producing 131 classes consistent in two-way matching and 10,000 particle projections.

[8] = DPH fluorescence staining, aqueous solution

CCCCCCCCCCCCO[C@@H]1O[C@H](CO)[C@@H](O[C@H]2O[C@H](CO)[C@@H](O)[C@H](O)[C@H]2O)[C@H](O)[C@H]1O [DDM, n-dodecyl-β-D-maltopyranoside]
CMC [1]: 170 µM | CMC [1, 8]: 170 µM | CMC (wt %) [1, 8]: 0.0087 wt % | R2 (nm), detergent hydrodynamic radius [2]: 3.4 ± 0.0 nm | LHI-RC protein stability when concentration increases from CMC+0.04 wt % to CMC+0.2 wt % (LHI-RC complex): protein stability decreases | MelBst solubilization from the membrane ([3]; 0° C. and 45° C.): stably solubilized | MelBst protein extraction efficiency ([3]; 0° C.): higher protein extraction efficiency than DTMs | MelBst solubilization from the membrane ([3]; 65° C.): did not occur | maintenance of MelB protein function (galactoside binding) of two homologs (MelBSt and MelBEc): only one of the two homologs | long-term β2AR receptor activity (β2AR): rapid loss of activity over time | integrity of β2AR-Gs complex (β2AR-Gs complex [4]): significant dissociation between the receptor and Gs protein even after 2 day-incubation | homogeneity of β2AR-Gs complex particles (negative stain EM) (β2AR-Gs complex [5]): aggregation of particles

CCCCCCC(CCCCCC)COCC(COCC(CCCCCC)CCCCCC)COCC(CO[C@@H]1OC(CO)[C@@H](O[C@H]2OC(CO)[C@@H](O)C(O)C2O)C(O)C1O)(CO[C@@H]1OC(CO)[C@@H](O[C@H]2OC(CO)[C@@H](O)C(O)C2O)C(O)C1O)CO[C@@H]1OC(CO)[C@H](O[C@H]2OC(CO)[C@@H](O)C(O)C2O)C(O)C1O (stereo partly drawn) [DTM-A6]
CMC [1, 8]: ~10 µM | CMC (wt %) [1, 8]: ~0.0015 wt % | R2 (nm), detergent hydrodynamic radius [2]: 3.7 ± 0.0 nm | MelBst solubilization from the membrane ([3]; 55° C.): most effectively solubilized | maintenance of MelB protein function (galactoside binding) of two homologs (MelBSt and MelBEc): maintain protein function | long-term β2AR receptor activity (β2AR): consistently maintained | integrity of β2AR-Gs complex (SEC) (β2AR-Gs complex [6]): continuously maintains its integrity as a complex for 15 days | homogeneity of β2AR-Gs complex particles (negative stain EM) (β2AR-Gs complex [7]): highly homogeneous

CCCCCCCCO[C@@H]1O[C@H](CO)[C@@H](O)[C@H](O)[C@H]1O [OG, n-octyl-β-D-glucopyranoside]
LHI-RC protein stability when concentration increases from CMC+0.04 wt % to CMC+0.2 wt % (LHI-RC complex): protein stability decreases
